The source of these data is US20240043470A1, “MACROCYCLIC COMPOUNDS AS PROTEASOME INHIBITORS” (CORNELL UNIVERSITY, priority 2017, published 2024).

Where two headings read alike, the source gives them in different places.

What is called IC50 is the concentration needed to halve the response being measured. Low readings indicate inhibition by little substance, high ones a need for much substance.

The conditions of data set [1]: rcm bond.
A further data set addresses β5c of hu c-20S (Homo sapiens (Human), UniProt P20618+P28074). Briefly: IC50 determination against β5c of human constitutive proteasome (suc-LLVY-AMC hydrolysis).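 Also: IC50 obtained by fitting initial reaction velocities to a dose-dependent inhibition model, with SDS present as proteasome activator.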 The format is biochemical. Particulars: 0.2 nM c-20S, 25 μM suc-LLVY-AMC.
The target in another data set is β5i of hu i-20S (Homo sapiens (Human), UniProt P20618+P28062). Briefly: IC50 determination against β5i of human immunoproteasome (Ac-ANW-AMC hydrolysis).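 Also: enzyme activity taken as the initial reaction velocity per well, with SDS added to activate the proteasome.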 To be noted: β5i, 0.4 nM i-20S, 15 μM Ac-ANW-AMC. Format: biochemical.
The conditions of data set [2]: 16-membered ring.
The conditions of data set [3]: amide bond; 16-membered ring; EDCI/HOBt/DIEA; DMF; 18.3 mM; 25.0 °C.

For `CC(=O)N[C@H]1CC=CCOc2cccc(c2)C[C@@H](C(=O)NCC(F)(F)F)NC(=O)[C@H](CCc2ccccc2)NC1=O`, in data set [1] (from C=CCOc1cccc(C[C@H](NC(=O)[C@H](CCc2ccccc2)NC(=O)[C@H](CC=C)NC(C)=O)C(=O)NCC(F)(F)F)c1, Grubbs 2nd generation catalyst, DCM, 24.9 mM, 40.0 °C, 4.0 h), the ring closure, yield of all isomers was determined as 88.8%. For the molecule `CC(=O)N[C@H]1Cc2cccc(c2)OCC=CC[C@@H](C(=O)NCC(F)(F)F)NC(=O)[C@H](CCc2ccccc2)NC1=O`, in data set [1] (from C=CCOc1cccc(C[C@H](NC(C)=O)C(=O)N[C@@H](CCc2ccccc2)C(=O)N[C@@H](CC=C)C(=O)NCC(F)(F)F)c1, Grubbs 2nd generation catalyst, DCM, 5.33 mM, 40.0 °C, 4.0 h), the ring closure, yield of all isomers amounted to 47%. Consider `CC(C)(C)OC(=O)[C@@H]1CCCCCC=CCCCC(=O)N[C@@H](CC(=O)OCc2ccccc2)C(=O)N1`, for which, in data set [1] (from C=CCCCCC[C@H](NC(=O)[C@H](CC(=O)OCc1ccccc1)NC(=O)CCCC=C)C(=O)OC(C)(C)C, Grubbs 2nd Generation catalyst, toluene, 1.27 mM, 40.0 °C, 16.0 h), the ring closure, yield of all isomers came to 92.6%.

As to `COC(=O)[C@@H]1CCCCCC=CCCC(Cc2ccccc2)C(=O)N[C@@H](CC(=O)OCc2ccccc2)C(=O)N1` (stereo partly drawn), the ring closure, yield of all isomers in data set [1] (from C=CCCCCC[C@H](NC(=O)[C@H](CC(=O)OCc1ccccc1)NC(=O)C(CCC=C)Cc1ccccc1)C(=O)OC, Grubbs 2nd generation, 1,2-dichloroethane, 10.75 mM, 50.0 °C, 24.0 h) came to 53%.

In data set [1] (from C=CCOc1cccc(C[C@@H](C(=O)N[C@@H](CCN2CCC(F)(F)CC2)C(=O)N[C@@H](CC=C)C(=O)NC2CCCC2)N2CCCC2=O)c1, Grubbs catalyst 2nd Generation, 1,2-dichloroethane, 5.07 mM, 60.0 °C, 12.0 h), `O=C(NC1CCCC1)[C@@H]1CC=CCOc2cccc(c2)C[C@H](N2CCCC2=O)C(=O)N[C@@H](CCN2CCC(F)(F)CC2)C(=O)N1` returned a ring closure, yield of all isomers of 61.6%. For the molecule `O=C1CCc2cccc(c2)OCC=CC[C@@H](C(=O)NC2CCCC2)NC(=O)[C@H](CC(=O)N2CCCC2C2CC2)N1` (stereo partly drawn), in data set [1] (from C=CCOc1cccc(CCC(=O)N[C@@H](CC(=O)N2CCCC2C2CC2)C(=O)N[C@@H](CC=C)C(=O)NC2CCCC2)c1, Grubbs 2nd generation, 1,2-dichloroethane, 4.09 mM, 50.0 °C, 12.0 h), the ring closure, yield of all isomers stood at 46.7%. For the molecule `O=C1CCc2cccc(c2)OCC=CC[C@@H](C(=O)NC2CCCC2)NC(=O)[C@H](CCc2ccc(F)cc2)N1`, in data set [1] (from C=CCOc1cccc(CCC(=O)N[C@@H](CCc2ccc(F)cc2)C(=O)N[C@@H](CC=C)C(=O)NC2CCCC2)c1, Grubbs catalyst 2nd generation, 1,2-dichloroethane, […], 60.0 °C, 12.0 h), the ring closure, yield of all isomers stood at 65%.

Consider `O=C1CCc2cccc(c2)Oc2ccc(cc2)CC(C(=O)NCc2cccc3ccccc23)NC(=O)C(CC(=O)N2CCCC2)N1` (stereo not drawn) [Compound 2-03-B, N-(Naphthalen-1-ylmethyl)-7,10-dioxo-8-(2-oxo-2-(pyrrolidin-1-yl)ethyl)-2-oxa-6,9-diaza-1(1,3),3(1,4)-dibenzenacyclododecaphane-5-carboxamide], for which the IC50 on β5c of hu c-20S was over 100 µM; on β5i of hu i-20S, 0.96 µM. In the same order, the values of `CC(=O)N[C@H]1Cc2cccc(c2)OC/C=C/C[C@@H](C(=O)NCC(F)(F)F)NC(=O)[C@H](CCc2ccccc2)NC1=O` [Compound 3-01, (7S,10S,13S,E)-13-Acetamido-9,12-dioxo-10-phenethyl-N-(2,2,2-trifluoroethyl)-2-oxa-8,11-diaza-1(1,3)-benzenacyclotetradecaphan-4-ene-7-carboxamide] are 0.78 µM and 15.6 µM. As for `CC(=O)N[C@H]1Cc2cccc(c2)OCCCC[C@@H](C(=O)NCC(F)(F)F)NC(=O)[C@H](CCc2ccccc2)NC1=O` [Compound 3-02, (3S,6S,9S)-3-Acetamido-4,7-dioxo-6-(2-phenylethyl)-N-(2,2,2-trifluoroethyl)-14-oxa-5,8-diazabicyclo[13.3.1]nonadeca-1(19),15,17-triene-9-carboxamide], the IC50 against β5c of hu c-20S was 0.433 µM; against β5i of hu i-20S, 5.88 µM. In the same order, the values of `COC(=O)C1COCCOc2cccc(c2)CCC(=O)NC(CCc2ccccc2)C(=O)N1` [Compound 3-05, Methyl-(7S,10S)-9,12-dioxo-10-phenethyl-2,5-dioxa-8,11-diaza-1(1,3)-benzenacyclotetradecaphane-7-carboxylate] are 23.1 µM and over 10 µM.

For `O=C(NCc1ncco1)[C@@H]1CCCCOc2cccc(c2)C[C@H](N2CCCC2=O)C(=O)N[C@@H](CCc2ccccc2)C(=O)N1` [Compound 3-16], the IC50 at β5c of hu c-20S was found to be 31.9 µM; against β5i of hu i-20S it was 82 µM.

For the molecule `O=C1CCc2cccc(c2)OCCCC[C@@H](C(=O)NCc2ccccc2F)NC(=O)[C@H](CCN2CCOCC2)N1` [Compound 3-26], the 50% inhibitory concentration (IC50) amounted to 3.4 µM against β5c of hu c-20S and 3.5 µM against β5i of hu i-20S.

`CN(C)[C@H]1Cc2cccc(c2)OCCCC[C@@H](C(=O)NC2CCCC2)NC(=O)[C@H](CCc2ccc(F)cc2)NC1=O` [Compound 3-36]: the IC50 was 9.5 µM against β5c of hu c-20S and over 100 µM against β5i of hu i-20S. For `O=C1CCc2cccc(c2)OCCCC[C@@H](C(=O)NC2CCCC2)NC(=O)[C@H](CCc2ccc(F)cc2)N1` [Compound 3-39, (7S,10S)—N-Cyclopentyl-10-(4-fluorophenethyl)-9,12-dioxo-2-oxa-8,11-diaza-1(1,3)-benzenacyclotetradecaphane-7-carboxamide], in that order: 38.6 µM and over 100 µM. In the same order, the values of `O=C1CCc2cccc(c2)OCCCC[C@@H](C(=O)NCc2ccccc2F)NC(=O)[C@H](CCc2ccc(F)cc2)N1` [Compound 3-41] are 56 µM and over 100 µM. Regarding `O=C1CCc2cccc(c2)OCCCC[C@@H](C(=O)NC2CCCC2)NC(=O)[C@H](CCN2CCC(F)(F)CC2)N1` [Compound 3-43], the IC50 against β5c of hu c-20S was 75.5 µM; at β5i of hu i-20S it was over 100 µM.

For `CN(Cc1ccccc1)C(=O)[C@@H]1CCCCOc2cccc(c2)C[C@H](N2CCCC2=O)C(=O)N[C@@H](CCc2ccc(F)cc2)C(=O)N1` [Compound 3-44], the values for the IC50 on β5c of hu c-20S and against β5i of hu i-20S were 5.15 µM and over 100 µM, respectively.

With `O=C1CCC/C=C\CCCCC[C@@H](C(=O)NCc2cccc3ccccc23)NC(=O)[C@H](CC(=O)N2CCCC2)N1` [Compound 4-05, (2S,5S,11Z)—N-(1-Naphthylmethyl)-3,16-dioxo-2-(2-oxo-2-pyrrolidin-1-yl-ethyl)-1,4-diazacyclohexadec-11-ene-5-carboxamide], in data set [2] (from (hex-5-enoyl)-Asp(pyrrolidin-1-yl amide)-((2S)-2-aminonon-8-enoic acid)-NHCH2(1-naphthyl)?, rcm bond, Grubbs II, CH2Cl2, 1.11 mM, 50.0 °C), the ring closure, isolated yield turned out to be 36%. In addition, the ring closure, yield of all isomers in data set [1] (from C=CCCCCC[C@H](NC(=O)[C@H](CC(=O)N1CCCC1)NC(=O)CCCC=C)C(=O)NCc1cccc2ccccc12, Grubbs 2nd Generation catalyst, CH2Cl2, 1.11 mM, 50.0 °C, 20.0 h) was found to be 36%. Besides, the IC50 against β5c of hu c-20S was over 100 µM; against β5i of hu i-20S, 4.36 µM. For `O=C1CCCCCCCCCC[C@@H](C(=O)NCc2cccc3ccccc23)NC(=O)[C@H](CC(=O)N2CCCC2)N1` [Compound 4-06, (2S,5S)—N-(1-Naphthylmethyl)-3,16-dioxo-2-(2-oxo-2-pyrrolidin-1-yl-ethyl)-1,4-diazacyclohexadecane-5-carboxamide], the IC50 against β5c of hu c-20S is over 100 µM; on β5i of hu i-20S it was 3.52 µM. In the same order, the values of `O=C1CCCCCCCCC[C@@H](C(=O)NCc2cccc3ccccc23)NC(=O)[C@H](CC(=O)N2CCCC2)N1` [Compound 4-07] are over 100 µM and 61.3 µM. For `O=C1CCCCCCCCCC[C@@H](C(=O)NCc2cccc3ccccc23)NC(=O)[C@H](CC(=O)N2CCC[C@@H]2c2ccccc2)N1` [Compound 4-08], in that order: over 100 µM and 33.4 µM. In the case of `O=C1CCCCCCCCOC[C@@H](C(=O)NCc2cccc3ccccc23)NC(=O)[C@H](CC(=O)N2CCCC2)N1` [Compound 4-15, (3S,6S)—N-(Naphthalen-1-ylmethyl)-5,8-dioxo-6-(2-oxo-2-(pyrrolidin-1-yl)ethyl)-1-oxa-4,7-diazacyclohexadecane-3-carboxamide], the IC50 on β5c of hu c-20S came out at 3.67 µM; against β5i of hu i-20S, 4.71 µM.

In the case of `O=C1CCCCCCCCOC[C@@H](C(=O)NCc2ccccc2F)NC(=O)[C@H](CC(=O)N2CCC[C@@H]2c2ccccc2)N1` [Compound 4-16], the IC50 turned out to be 4.12 µM against β5c of hu c-20S and 51.3 µM against β5i of hu i-20S. For the molecule `O=C1CCCCCCCCCC[C@@H](C(=O)NCc2ccccc2F)NC(=O)[C@H](CC(=O)N2CCCC2C2COC2)N1` (stereo partly drawn) [Compound 4-17], the values for the IC50 on β5c of hu c-20S and on β5i of hu i-20S were 0.88 µM and 0.11 µM, respectively. Molecule “(2-benzylhex-5-enoyl)-Asp(OBn)-(2-aminonon-8-enoic acid)-OMe?” yielded a ring closure, isolated yield in data set [2] (the molecule shown is the open-chain precursor, rcm bond, Grubbs II, DCE, […], 50.0 °C) of 53%.

In the case of “(5S,8S,11S)-6-Methyl-7,10-dioxo-11-(2-oxopyrrolidin-1-yl)-8-phenethyl-N-(2,2,2-trifluoroethyl)-2-oxa-6,9-diaza-1,3(1,3)-dibenzenacyclododecaphane-5-carboxamide”, the ring closure, yield after HPLC in data set [3] was found to be 26%. As to “(5S,8S,11S)-11-Acetamido-7,10-dioxo-8-propyl-N-(2,2,2-trifluoroethyl)-2-oxa-6,9-diaza-1,3(1,3)-dibenzenacyclododecaphane-5-carboxamide”, in data set [2] (amide bond, HATU/DIEA, DMF, […], 0.0 °C), the ring closure, isolated yield is 18.7%. Molecule “(7S,10S,13S,E)-13-Acetamido-9,12-dioxo-10-phenethyl-N-(2,2,2-trifluoroethyl)-2-oxa-8,11-diaza-1(1,3)-benzenacyclotetradecaphan-4-ene-7-carboxamide” returned a ring closure, isolated yield in data set [2] (rcm bond, Grubbs II, DCM, 5.3 mM, 40.0 °C) of 47%. As to “(hex-5-enoyl)-Asp(OBn)-((2S)-2-aminonon-8-enoic acid)-OtBu?”, the ring closure, isolated yield in data set [2] (the molecule shown is the open-chain precursor, rcm bond, Grubbs II, toluene, 1.27 mM, 40.0 °C) was 92.6%.

In turn, “Ac-Gly(allyl)-hPhe-Phe(3-OAllyl)-NHCH2CF3?” showed a ring closure, isolated yield in data set [2] (the molecule shown is the open-chain precursor, rcm bond, Grubbs II, DCM, 24.9 mM, 40.0 °C) of 88.8%.
